Numbers after ± are expanded uncertainties.

A short description of the series: activity coefficient (dimensionless); of the first substance listed, at infinite dilution; xn = mol fraction of the nth substance listed. As to conditions: Liquid, Dilutor technique, x1 = 0.

`c1ccccc1` [benzene] + CCCCCC[n+]1cccc(C)c1.O=S(=O)([N-]S(=O)(=O)C(F)(F)F)C(F)(F)F: the activity coefficient was 0.673 ± 0.004 (303.15 K), 0.683 ± 0.004 (313.15 K), 0.691 ± 0.004 (323.15 K) and 0.701 ± 0.004 (333.15 K).

Turning to `c1ccccc1` [benzene] + CCCCCCn1cc[n+](C)c1.F[B-](F)(F)F, the activity coefficient was determined as 1.385 ± 0.004 (303.15 K), 1.446 ± 0.004 (313.15 K), 1.562 ± 0.004 (323.15 K) and 1.912 ± 0.004 (333.15 K).

`c1ccccc1` [benzene] + CCCCn1cc[n+](C)c1.F[B-](F)(F)F: the activity coefficient reads like this: (313.15 K) 2.341 ± 0.004; (323.15 K) 2.246 ± 0.004; (333.15 K) 2.218 ± 0.004.

`C1=CCCCC1` [cyclohexene] + CCCCCC[n+]1cccc(C)c1.O=S(=O)([N-]S(=O)(=O)C(F)(F)F)C(F)(F)F: the activity coefficient is, setting by setting: (303.15 K) 3.337 ± 0.004; (313.15 K) 3.205 ± 0.004; (323.15 K) 3.131 ± 0.004; (333.15 K) 3.018 ± 0.004.

Take `C1=CCCCC1` [cyclohexene] + CCCCCCn1cc[n+](C)c1.F[B-](F)(F)F: the activity coefficient (303.15 K) came out at 7.74 ± 0.004, the activity coefficient (313.15 K) is 7.632 ± 0.004, the activity coefficient (323.15 K) came to 7.496 ± 0.004 and the activity coefficient (333.15 K) worked out at 7.052 ± 0.004.
